Laboratory results taken from US11873298B2, “Compounds and uses thereof” (JANSSEN PHARMACEUTICA NV, priority 2017, dated 2024).
“And” between values parts separate entries of the source, which are not always exact repeats. Equal values may be shown once.

Experiments:
SCD1 = target: T1, SCD1 (Homo sapiens, UniProt O00767); experiment: Growth inhibition of humanized yeast strain expressing SCD1 as sole desaturase; format: cell-based; settings: humanized yeast strain expressing SCD1
T1 construct: host or cells: S. cerevisiae ole1Δ strain (W303 pdr1Δ pdr3Δ background), plasmid pRS316 with TDH3 promoter and CYC1 terminator
T1 sequence (O00767 1-359): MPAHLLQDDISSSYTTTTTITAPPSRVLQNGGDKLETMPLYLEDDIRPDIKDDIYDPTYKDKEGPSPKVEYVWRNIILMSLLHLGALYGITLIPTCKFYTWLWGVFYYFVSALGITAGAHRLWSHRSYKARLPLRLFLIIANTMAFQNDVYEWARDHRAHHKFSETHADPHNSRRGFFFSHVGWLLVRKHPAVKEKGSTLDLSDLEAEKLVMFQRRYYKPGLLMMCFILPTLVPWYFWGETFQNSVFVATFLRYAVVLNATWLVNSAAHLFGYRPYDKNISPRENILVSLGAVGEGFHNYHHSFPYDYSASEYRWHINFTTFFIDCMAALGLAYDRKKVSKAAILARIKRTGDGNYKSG
Method in brief: (§1)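 OD600 growth read-out. ole1Δ yeast, pdr1Δ pdr3Δ, with Ole1/SCD1/SCD5 on a plasmid; SX-Ura media throughout; 2× cell density 0.02 in CSM-Galactose; DMSO compound dilutions; humidified 30° C.; Ole1 stopped at 24 h, SCD1/SCD5 at 40 h.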

SCD5 = target: T2, SCD5 (Homo sapiens, UniProt Q86SK9); experiment: Growth inhibition of humanized yeast strain expressing SCD5 as sole desaturase; format: cell-based; settings: humanized yeast strain expressing SCD5
T2 construct: host or cells: S. cerevisiae ole1Δ strain (W303 pdr1Δ pdr3Δ background), plasmid pRS316 with TDH3 promoter and CYC1 terminator
T2 sequence (Q86SK9 1-330): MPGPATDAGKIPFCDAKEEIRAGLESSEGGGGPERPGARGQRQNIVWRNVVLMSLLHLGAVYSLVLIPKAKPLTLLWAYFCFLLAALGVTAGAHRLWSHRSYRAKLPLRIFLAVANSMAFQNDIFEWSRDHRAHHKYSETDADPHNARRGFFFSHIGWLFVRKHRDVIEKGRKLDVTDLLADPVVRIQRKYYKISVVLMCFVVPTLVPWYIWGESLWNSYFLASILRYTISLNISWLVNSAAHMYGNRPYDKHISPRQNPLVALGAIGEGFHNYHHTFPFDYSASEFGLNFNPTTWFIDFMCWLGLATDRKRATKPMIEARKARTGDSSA
Method in brief: as §1

[1] = system: yeast strains expressing the human α-synuclein; experiment: Yeast α-synuclein toxicity rescue assay (OD600 growth); settings: 40 h; for EC50: read-out: α-Syn EC50; for Emax: read-out: α-Syn Emax
Ole1 = target: T3, Ole1 (Saccharomyces cerevisiae, UniProt P21147); experiment: Growth inhibition of yeast strain expressing Ole1 as sole desaturase; format: cell-based; settings: yeast strain expressing Ole1 as sole desaturase
T3 construct: expressed in transfected cells; host or cells: S. cerevisiae ole1Δ strain (W303 pdr1Δ pdr3Δ background), plasmid pRS316 with TDH3 promoter and CYC1 terminator
T3 sequence (P21147 1-510): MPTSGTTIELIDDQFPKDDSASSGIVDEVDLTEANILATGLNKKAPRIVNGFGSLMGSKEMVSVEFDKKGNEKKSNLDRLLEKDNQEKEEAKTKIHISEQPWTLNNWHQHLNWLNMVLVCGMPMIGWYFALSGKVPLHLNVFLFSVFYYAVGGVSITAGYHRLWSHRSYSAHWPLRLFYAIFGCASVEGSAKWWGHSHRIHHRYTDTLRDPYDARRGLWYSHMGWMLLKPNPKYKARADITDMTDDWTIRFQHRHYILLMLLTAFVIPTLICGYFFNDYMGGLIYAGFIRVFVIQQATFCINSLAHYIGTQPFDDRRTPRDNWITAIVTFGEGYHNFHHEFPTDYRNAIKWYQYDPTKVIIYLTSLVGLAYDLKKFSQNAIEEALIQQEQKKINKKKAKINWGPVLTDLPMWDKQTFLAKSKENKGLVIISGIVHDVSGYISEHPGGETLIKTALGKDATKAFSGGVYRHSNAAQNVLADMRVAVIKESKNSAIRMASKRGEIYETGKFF
Method in brief: as §1

Row | Structure (SMILES) | IC50 (SCD1) | SCD1 % Max Inhibition (SCD1) | SCD5 % Max Inhibition (SCD5) | EC50 [1] | Emax [1] | IC50 (Ole1) | OLE1 % Max Inhibition (Ole1) | IC50 (SCD5)
1 | CCOc1ccc(-c2noc(C3CCN(C(=O)C(C)N4Cc5ccccc5C4=O)CC3)n2)cc1OC (centres unmarked) [Compound 140] | > 45 µM | 77.37% and 75.00% | 3.46% and 10.16% | 0.049 µM | 322% | > 45 µM | 3.96% and 4.98% | –
2 | COc1cccc(C(=O)NCC(=O)N2CCC(c3nc(-c4ccc5c(C)nn(C)c5c4)no3)CC2)n1 [Compound 154] | > 45 µM | 68.90% | 3.25% | 0.057 µM | 410% | > 45 µM | 1.20% | > 45 µM
3 | COc1ccc(-c2noc(C3CCN(C(=O)C4CC(=O)N(C5CCCCC5)C4)CC3)n2)cc1OC (centres unmarked) [Compound 125] | > 45 µM | 77.68% | 94.83% | 16.7 µM | 200% | > 45 µM | 92.36% | > 45 µM
4 | Cc1nn(C)c2nc(-c3noc(C4CCN(C(=O)C5CC(=O)N(c6ccccc6)C5)CC4)n3)ccc12 (centres unmarked) [Compound 116] | > 45 µM | 71.12% | 8.35% | 9.04 µM | 345% | > 45 µM | 12.75% | > 45 µM
5 | Cc1nnc(C)c2cc(-c3noc(C4CCN(C(=O)CNC(=O)c5ccccc5)CC4)n3)ccc12 [Compound 105] | > 45 µM | 41.38% | 13.93% | 3.18 µM | 391% | > 45 µM | 34.19% | > 45 µM
6 | COc1ccc(-c2noc(C3CCN(C(=O)CNC(=O)N4CCCCC4)CC3)n2)cc1OC [Compound 143] | > 45 µM | 79.38% | 96.06% | 16.9 µM | 73% | > 45 µM | 95.01% | > 45 µM
7 | CCOc1ccc(-c2noc(C3CCN(C(=O)CN4Cc5ccccc5C4=O)CC3)n2)cc1OC [Compound 106] | > 45 µM | 78.19% | 71.22% | 0.1 µM | 415% | > 45 µM | 35.35% | > 45 µM
8 | Cc1nn(C)c2ccc(-c3noc(C4CCN(C(=O)CNC(=O)c5ccccc5)CC4)n3)cc12 [Compound 95] | 39.2 µM | – | – | 0.091 µM | 827% | > 45 µM | – | > 45 µM
9 | Cn1c(=O)[nH]c2ccc(-c3noc(C4CCN(C(=O)CN5Cc6ccccc6C5=O)CC4)n3)cc21 [Compound 133] | 37.3 µM | 61.21% | 74.75% | 6.38 µM | 281% | > 45 µM | 26.72% | > 45 µM
10 | COc1ccc(-c2noc(C3CCN(CCNC(=O)c4ccccc4)CC3)n2)cc1OC [Compound 32] | > 45 µM | 84.16% | 80.17% | 9.88 µM | 41% | > 45 µM | 108.22% | > 45 µM
11 | COc1ccc(-c2noc(C3CCN(C(=O)c4ccc(C(C)C)cc4)CC3)n2)cc1OC [Compound 127] | > 45 µM | 66.46% | 88.59% | 7.42 µM | 349% | > 45 µM | 99.27% | > 45 µM
12 | Cc1nn(C)c2nc(-c3noc(C4CCN(C(=O)CNC(=O)c5ccccc5)CC4)n3)ccc12 [Compound 115] | > 45 µM | 77.36% | 77.85% | 0.887 µM | 326% | > 45 µM | 101.68% | > 45 µM
13 | COc1ccc(-c2noc(C3CCN(C(=O)CNC(=O)c4ccccc4OC)CC3)n2)cc1OC [Compound 144] | > 45 µM | 79.00% | 84.27% | 0.521 µM | 537% | > 45 µM | 100.96% | > 45 µM
14 | CCOc1ccc(-c2noc(C3CCN(C(=O)C(CO)N4Cc5ccccc5C4=O)CC3)n2)cc1OC (centres unmarked) [Compound 128] | > 45 µM | – | 1.89% and 3.32% | 0.252 µM | 306% | > 45 µM | 81.43% and 60.60% | > 45 µM
15 | O=C(NCC(=O)N1CCC(c2nc(-c3ccc4c(c3)OC(F)(F)O4)no2)CC1)c1ccccc1 [Compound 109] | > 45 µM | 84.36% | 89.75% | 3.04 µM | 35% | > 45 µM | 87.87% | > 45 µM
16 | Cc1nn(C)c2cc(-c3noc(C4CCN(C(=O)C(C)N5Cc6ccccc6C5=O)CC4)n3)ccc12 (centres unmarked) [Compound 141] | > 45 µM | 86.53% | 78.91% | 0.019 µM | 259% | > 45 µM | 1.77% | > 45 µM
17 | CCOc1ccc(-c2noc(C3CCN(C(=O)CNC(=O)c4ccccc4)CC3)n2)nc1OC [Compound 107] | > 45 µM | 73.32% | 74.80% | 2.9 µM | 312% | > 45 µM | 4.55% | > 45 µM
18 | CCOc1cnc(-c2noc(C3CCN(C(=O)C4CC(=O)N(c5ccccc5)C4)CC3)n2)cc1OC (centres unmarked) [Compound 118] | > 45 µM | 93.37% | 32.21% | 15.7 µM | 65% | > 45 µM | 87.29% | 27.5 µM
19 | Cc1nn(C)c2cc(-c3noc(C4CCN(C(=O)CNC(=O)c5ccccc5)CC4)n3)ccc12 [Compound 40] | > 45 µM | 41.70% and 47.19% and 57.7% | – | 0.086 µM | 443% | > 45 µM | 1.26% and 0.80% and 4.9% | > 45 µM
20 | Cc1nn(C)c2cc(-c3noc(C4CCN(C(=O)C5CC(=O)N(c6ccccc6)C5)CC4)n3)ccc12 (centres unmarked) [compound 89] | > 45 µM | – | – | 0.165 µM | 580% | > 45 µM | – | > 45 µM
21 | Cc1nn(C)c2cc(-c3noc(C4CCN(C(=O)CNC(=O)c5ccccc5)CC4)n3)ncc12 [Compound 114] | > 45 µM | 74.54% | 77.66% | 17.3 µM | 373% | > 45 µM | 90.17% | > 45 µM
22 | Cn1c(=O)n(C)c2cc(-c3noc(C4CCN(C(=O)C5CC(=O)N(c6ccccc6)C5)CC4)n3)ccc21 (centres unmarked) [Compound 123] | > 45 µM | 73.59% | 9.69% | 0.069 µM | 343% | > 45 µM | 3.12% | > 45 µM
